# Reference: patent publication US6355799B1, “Substituted benzene compounds, process for their preparation, and herbicidal and defoliant compositions containing them” (ISK Americas Incorporated, priority 1997, dated 2002)
# How the values were obtained:
# Assay type in all cases: in vivo
# [1] = tested on: field corn (Zea mays L., var. Dekalb 535, CORN); experiment: Post-emerge test, crop safety; settings: post-emerge, 14 days after application, rating scale 0-100
# Summary of the method: (§1)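 Each test used a mechanized track sprayer delivering 187 l/ha of acetone solution at 15–1000 g ai/ha. Post-emerge foliage at 2–3 leaves was treated with added 0.25% v/v non-ionic surfactant and bottom-watered only. Injury was assessed on day 14, where 100 means total kill.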
# [2] = tested on: upland rice (Oryza sp., var. Tebonnet, RICE); experiment: Post-emerge test, crop safety; settings: post-emerge, 14 days after application, rating scale 0-100
# Summary of the method: as §1
# [3] = tested on: large crabgrass (Digitaria sanguinalis, DIGSA); experiment: Post-emerge test, greenhouse herbicide activity screening; settings: post-emerge, 14 days after application, rating scale 0-100
# Summary of the method: (§2)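 Fourteen days after spraying, crop and weed injury was graded visually from 0, no effect, to 100, every plant dead. Test substances were dissolved in acetone and applied at 15–1000 g ai/ha with a flat-fan nozzle. Application was either pre-emergence, one day after sowing, or post-emergence at the 2–3 leaf stage.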
# [4] = tested on: ivyleaf morningglory (Ipomoea hederacea, IPOHE); experiment: as above; settings: post-emerge, 14 days after application, rating scale 0-100
# Summary of the method: as §2
# [5] = tested on: velvetleaf (Abutilon theophrasti, ABUTH); experiment: as above; settings: post-emerge, 14 days after application, rating scale 0-100
# Summary of the method: as §2
# [6] = tested on: redroot pigweed (Amaranthus retroflexus, AMARE); experiment: as above; settings: post-emerge, 14 days after application
# Summary of the method: as §2
# [7] = tested on: barnyardgrass (Echinochloa crus-galli, ECHCG); experiment: as above; settings: post-emerge, 14 days after application, rating scale 0-100
# Summary of the method: as §2
# [8] = tested on: green foxtail (Setaria viridis, SETVI); experiment: as above; settings: post-emerge, 14 days after application, rating scale 0-100
# Summary of the method: as §2
# [9] = tested on: sicklepod (Cassia obtusifolia, CASOB); experiment: as above; settings: post-emerge, 14 days after application, rating scale 0-100
# Summary of the method: as §2
# [10] = tested on: large crabgrass (Digitaria sanguinalis, DIGSA); experiment: Pre-emerge test, greenhouse herbicide activity screening; settings: pre-emerge, 14 days after application
# Summary of the method: (§3)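 Plants grown in 10 cm pots of sandy loam mix received acetone-dissolved compounds through a moving flat-fan nozzle. Doses ranged from 15 to 1000 g ai/ha. Pre-emerge pots were seeded one day earlier, post-emerge pots 8–21 days earlier. Fourteen days on, each pot was graded 0–100 for damage.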
# [11] = tested on: lambsquarters (Chenopodium album, CHEAL); experiment: as above; settings: pre-emerge, 14 days after application
# Summary of the method: as §3
# [12] = tested on: ivyleaf morningglory (Ipomoea hederacea, IPOHE); experiment: as above; settings: pre-emerge, 14 days after application
# Summary of the method: as §3
# [13] = tested on: velvetleaf (Abutilon theophrasti, ABUTH); experiment: as above; settings: pre-emerge, 14 days after application
# Summary of the method: as §3
# [14] = tested on: barnyardgrass (Echinochloa crus-galli, ECHCG); experiment: as above; settings: pre-emerge, 14 days after application
# Summary of the method: as §3
# [15] = tested on: johnsongrass (Sorghum halepense, SORHA); experiment: as above; settings: pre-emerge, 14 days after application
# Summary of the method: as §3
# [16] = tested on: green foxtail (Setaria viridis, SETVI); experiment: as above; settings: pre-emerge, 14 days after application
# Summary of the method: as §3
# [17] = tested on: sicklepod (Cassia obtusifolia, CASOB); experiment: as above; settings: pre-emerge, 14 days after application
# Summary of the method: as §3
# [18] = tested on: field corn (Zea mays L., var. Dekalb 535, CORN); experiment: Pre-emerge test, crop safety; settings: pre-emerge, 14 days after application; for phytotoxicity rating CORN (crop damage): scale 0-100; for phytotoxicity rating CORN: rating scale 0-100
# Summary of the method: (§4)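 Compounds in acetone were track-sprayed at 15-1000 g ai/ha (187 l/ha) on sandy loam pots: pre-emerge one day after seeding, post-emerge at 2-3 leaf stage with 0.25% v/v non-ionic surfactant. Phytotoxicity was rated 14 days later on a 0 (no damage) to 100 (complete death) scale.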
# [19] = tested on: upland rice (Oryza sp., var. Tebonnet, RICE); experiment: Pre-emerge test, crop safety; settings: pre-emerge, 14 days after application; for phytotoxicity rating RICE (crop damage): scale 0-100; for phytotoxicity rating RICE: rating scale 0-100
# Summary of the method: as §4
# [20] = tested on: redroot pigweed (Amaranthus retroflexus, AMARE); experiment: Pre-emerge test, greenhouse herbicide activity screening; settings: pre-emerge, 14 days after application
# Summary of the method: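 Sandy loam pots; pre-emerge: sown 1 d pre-spray, surface-watered after, then bottom-watered. Post-emerge: sown 8–21 d before, 2–3 leaf stage, + 0.25% v/v NIS, bottom-watered. Acetone, 187 l/ha track spray, 15–1000 g ai/ha. 0–100 injury score, day 14.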
# [21] = 250 g ai/ha, rating scale 0-100
smiles,measurement,setting,value
COc1ccc(-n2c(=O)cc(C(F)(F)F)n(C)c2=O)c(NC(=O)c2ccc3ccccc3c2)c1 [2-143],CORN phytotoxicity rating (crop damage),[1]; 63 g ai/ha,10
same,CORN phytotoxicity rating (crop damage),[1]; 250 g ai/ha,35
same,RICE phytotoxicity rating (crop damage),[2]; 63 g ai/ha,40
same,RICE phytotoxicity rating (crop damage),[2]; 250 g ai/ha,70
same,DIGSA phytotoxicity rating,[3]; 63 g ai/ha,0
same,DIGSA phytotoxicity rating,[3]; 250 g ai/ha,40
same,IPOHE phytotoxicity rating,[4]; 63 g ai/ha,60
same,IPOHE phytotoxicity rating,[4]; 250 g ai/ha,100
same,ABUTH phytotoxicity rating,[5]; 63 g ai/ha,100
same,ABUTH phytotoxicity rating,[5]; 250 g ai/ha,100
same,AMARE phytotoxicity rating,"[6]; 63 g ai/ha, rating scale 0-100",100
same,AMARE phytotoxicity rating,[6]; [21],100
same,ECHCG phytotoxicity rating,[7]; 63 g ai/ha,0
same,ECHCG phytotoxicity rating,[7]; 250 g ai/ha,30
same,SETVI phytotoxicity rating,[8]; 63 g ai/ha,0
same,SETVI phytotoxicity rating,[8]; 250 g ai/ha,40
same,CASOB phytotoxicity rating,[9]; 63 g ai/ha,70
same,CASOB phytotoxicity rating,[9]; 250 g ai/ha,100
same,phytotoxicity rating DIGSA,"[10]; 63 g ai/ha, scale 0-100",30
same,phytotoxicity rating DIGSA,"[10]; 250 g ai/ha, scale 0-100",100
same,phytotoxicity rating CHEAL,"[11]; 63 g ai/ha, scale 0-100",100
same,phytotoxicity rating CHEAL,"[11]; 250 g ai/ha, scale 0-100",100
same,phytotoxicity rating IPOHE,"[12]; 63 g ai/ha, scale 0-100",0
same,phytotoxicity rating IPOHE,"[12]; 250 g ai/ha, scale 0-100",35
same,phytotoxicity rating ABUTH,"[13]; 63 g ai/ha, scale 0-100",100
same,phytotoxicity rating ABUTH,"[13]; 250 g ai/ha, scale 0-100",100
same,phytotoxicity rating ECHCG,"[14]; 63 g ai/ha, scale 0-100",30
same,phytotoxicity rating ECHCG,"[14]; 250 g ai/ha, scale 0-100",85
same,phytotoxicity rating SORHA,"[15]; 63 g ai/ha, scale 0-100",30
same,phytotoxicity rating SORHA,"[15]; 250 g ai/ha, scale 0-100",80
same,phytotoxicity rating SETVI,"[16]; 63 g ai/ha, scale 0-100",30
same,phytotoxicity rating SETVI,"[16]; 250 g ai/ha, scale 0-100",70
same,phytotoxicity rating CASOB,"[17]; 63 g ai/ha, scale 0-100",0
same,phytotoxicity rating CASOB,"[17]; 250 g ai/ha, scale 0-100",90
same,phytotoxicity rating CORN (crop damage),[18]; 63 g ai/ha,0
same,phytotoxicity rating CORN (crop damage),[18]; 250 g ai/ha,5
same,phytotoxicity rating RICE (crop damage),[19]; 63 g ai/ha,20
same,phytotoxicity rating RICE (crop damage),[19]; 250 g ai/ha,65
same,phytotoxicity rating AMARE,"[20]; 63 g ai/ha, scale 0-100",100
same,phytotoxicity rating AMARE,"[20]; 250 g ai/ha, scale 0-100",100
CCOC(=O)NNc1c(OC)c(Cl)cc(F)c1-n1c(=O)cc(C(F)(F)F)n(C)c1=O [15-6],Post-emerge Herbicidal Activity CORN (crop damage rating),[1]; 63 g ai/ha,25
same,Post-emerge Herbicidal Activity CORN (crop damage rating),[1]; 250 g ai/ha,80
same,Post-emerge Herbicidal Activity RICE (crop damage rating),[2]; 63 g ai/ha,60
same,Post-emerge Herbicidal Activity RICE (crop damage rating),[2]; 250 g ai/ha,95
same,Post-emerge Herbicidal Activity DIGSA (phytotoxicity rating),[3]; 63 g ai/ha,0
same,Post-emerge Herbicidal Activity DIGSA (phytotoxicity rating),[3]; 250 g ai/ha,90
same,Post-emerge Herbicidal Activity IPOHE (phytotoxicity rating),[4]; 63 g ai/ha,50
same,Post-emerge Herbicidal Activity IPOHE (phytotoxicity rating),[4]; 250 g ai/ha,100
same,Post-emerge Herbicidal Activity ABUTH (phytotoxicity rating),[5]; 63 g ai/ha,100
same,Post-emerge Herbicidal Activity ABUTH (phytotoxicity rating),[5]; 250 g ai/ha,100
same,Post-emerge Herbicidal Activity AMARE (phytotoxicity rating),"[6]; 63 g ai/ha, rating scale 0-100 (0 no damage, 100 complete death)",50
same,Post-emerge Herbicidal Activity AMARE (phytotoxicity rating),[6]; [21],85
same,Post-emerge Herbicidal Activity ECHCG (phytotoxicity rating),[7]; 63 g ai/ha,20
same,Post-emerge Herbicidal Activity ECHCG (phytotoxicity rating),[7]; 250 g ai/ha,95
same,Post-emerge Herbicidal Activity SETVI (phytotoxicity rating),[8]; 63 g ai/ha,30
same,Post-emerge Herbicidal Activity SETVI (phytotoxicity rating),[8]; 250 g ai/ha,75
same,Post-emerge Herbicidal Activity CASOB (phytotoxicity rating),[9]; 63 g ai/ha,30
same,Post-emerge Herbicidal Activity CASOB (phytotoxicity rating),[9]; 250 g ai/ha,70
same,phytotoxicity rating DIGSA,"[10]; 63 g ai/ha, rating scale 0-100",100
same,phytotoxicity rating DIGSA,[10]; [21],100
same,phytotoxicity rating CHEAL,"[11]; 63 g ai/ha, rating scale 0-100",100
same,phytotoxicity rating CHEAL,[11]; [21],100
same,phytotoxicity rating IPOHE,"[12]; 63 g ai/ha, rating scale 0-100",100
same,phytotoxicity rating IPOHE,[12]; [21],100
same,phytotoxicity rating ABUTH,"[13]; 63 g ai/ha, rating scale 0-100",100
same,phytotoxicity rating ABUTH,[13]; [21],100
same,phytotoxicity rating ECHCG,"[14]; 63 g ai/ha, rating scale 0-100",99
same,phytotoxicity rating ECHCG,[14]; [21],100
same,phytotoxicity rating SORHA,"[15]; 63 g ai/ha, rating scale 0-100",100
same,phytotoxicity rating SORHA,[15]; [21],100
same,phytotoxicity rating SETVI,"[16]; 63 g ai/ha, rating scale 0-100",99
same,phytotoxicity rating SETVI,[16]; [21],100
same,phytotoxicity rating CASOB,"[17]; 63 g ai/ha, rating scale 0-100",90
same,phytotoxicity rating CASOB,[17]; [21],100
same,phytotoxicity rating CORN,[18]; 63 g ai/ha,95
same,phytotoxicity rating CORN,[18]; 250 g ai/ha,100
same,phytotoxicity rating RICE,[19]; 63 g ai/ha,98
same,phytotoxicity rating RICE,[19]; 250 g ai/ha,100
same,phytotoxicity rating AMARE,"[20]; 63 g ai/ha, rating scale 0-100",100
same,phytotoxicity rating AMARE,[20]; [21],100
